# Results from patent US9168286B2, “Methods and compositions for use in treatment of patients with autoantibody positive disease” (Human Genome Sciences, Inc., priority 2005, dated 2015).
# How the values were obtained:
# subjects with SLE [1] = test: Phase 2 clinical trial of belimumab in SLE with 24-week extension and continuation trial: disease activity (SELENA SLEDAI, SLE Flare Index, PGA, BILAG, SF-36); assay type: in vivo, human
# Description: Further, response rates among the treatment groups in the trial were also analyzed using a combined response endpoint (row 1), which combined a measure of global disease activity as measured by the SS score, with a measure of a patient's overall condition as assessed by the PGA disease activity index and a measure of disease in specific organ systems as measured by the BILAG scale.
# Serum autoantibodies, Ig isotypes and complement (C3, C4) were measured at 1-3 month intervals. […]
# subjects with SLE [2] = test: Phase 2 clinical trial of belimumab in SLE with extension and continuation trial: biologic markers (B cells, autoantibodies, Ig isotypes, C3/C4); assay type: in vivo, human; design: median percent change in CD20+ B cells (reduction) / median percent change in plasmacytoid B cells (CD20+/CD138+) (reduction) / median percent change in activated B cells (CD20+/CD69+) (reduction) / percent of subjects with significant anti-dsDNA reduction / IgE reduction: concentration or dose not given beside the values; settings: for IgE reduction: subjects with elevated IgE (>114 KU/L) at baseline
# Description: Of the patients who completed 52 weeks of treatment in the randomized, double-blind, placebo-controlled Phase 2 trial (see example 1), 96% (351/364) elected to enter the 24-week extension phase of the trial, and 92% (321/351) of those who entered completed it.
# Serum autoantibodies, Ig isotypes and complement (C3, C4) were measured at 1-3 month intervals. In addition, the population with baseline serologic activity (ANA ≧1:80 or anti-dsDNA Ab ≧30IU; 72% of the original cohort herein called seropositive patients or seropositive subjects) was evaluated for SS, physician global assessment (PGA 0-3 units), BILAG, […] Functional Index (SFI) and autoantibody status at 1-3 month intervals.
# [3] = each measurement during weeks 8-52, p<0.01
# [4] = week 52, all treatment groups combined, p<0.002
# [5] = week 76, all treatment groups combined
substance,measurement,setting,value
belimumab: an antibody that neutralizes Neutrokine-alpha protein,percent of seropositive subjects with SS>4 point improvement,subjects with SLE [1]; weeks 76-128,58-60%
same,percent of seropositive subjects with new 1A or 2B BILAG flares,subjects with SLE [1]; weeks 96-128,6-7%
same,seropositive subjects with worsening PGA scores,subjects with SLE [1]; weeks 96-128,7-9%
same,subjects with elevated Ig isotype levels at baseline returned to normal Ig isotype levels,"subjects with SLE [2]; 52/128, p=0.0014, control 16% (7/45)",41%
same,decrease of anti-dsDNA levels,"subjects with SLE [2]; anti-dsDNA+ at baseline, weeks 52-128, placebo week 52=9%",29-44%
same,"serum IgG, IgA, IgE and IgM levels, median percent change from baseline","subjects with SLE [2]; as early as week 8, p<0.0001 vs placebo",Significant belimumab-induced reductions
same,time at which maximal median reductions of each Ig isotype were reached,subjects with SLE [2]; belimumab-treated subjects,8-24 weeks
same,percent of subjects with significant anti-dsDNA reduction,"subjects with SLE [2]; clinical responders, week 52",35%
same,percent of subjects with significant anti-dsDNA reduction,"subjects with SLE [2]; clinical responders, week 128",56%
same,"CD19+ B cell counts, median percent change from baseline",subjects with SLE [2]; [3],Significant reductions
same,"activated B cell (CD20+/CD69+) counts, median percent change from baseline",subjects with SLE [2]; [3],Significant reductions
same,"naïve B cell (CD20+/CD27−) counts, median percent change from baseline",subjects with SLE [2]; [3],Significant reductions
same,"plasmacytoid B cell (CD20+/CD138+) counts, median percent change from baseline","subjects with SLE [2]; each measurement during weeks 16-52, p<0.01",Significant reductions
same,increase of C3,"subjects with SLE [2]; low baseline C3 (n=135), week 52, placebo −1%",6%
same,increase of C3,"subjects with SLE [2]; low baseline C3, week 76",10%
same,increase of C3,"subjects with SLE [2]; low baseline C3, week 96",15%
same,increase of C3,"subjects with SLE [2]; low baseline C3, week 128",18%
same,increase of C4,"subjects with SLE [2]; low baseline C4 (n=180), week 52, p=0.0126, placebo 14%",33%
same,increase of C4,"subjects with SLE [2]; low baseline C4, week 76",46%
same,increase of C4,"subjects with SLE [2]; low baseline C4, week 96",57%
same,increase of C4,"subjects with SLE [2]; low baseline C4, week 128",67%
same,Anti-Sm reverted from positive at baseline to negative,"subjects with SLE [2]; n=85, weeks 52-128, placebo week 52=5%",26-36%
same,subjects with hypergammaglobulinemia (>1618 mg/dL) at baseline normalized,"subjects with SLE [2]; n=125, week 52, placebo week 52=17%",45%
same,subjects with hypergammaglobulinemia (>1618 mg/dL) at baseline normalized,"subjects with SLE [2]; n=125, week 128",57%
same,RNP reverted from positive at baseline to negative,"subjects with SLE [2]; n=205, weeks 52-128, placebo week 52=2%",9-27%
same,percent of subjects with significant anti-dsDNA reduction,"subjects with SLE [2]; non-responders, week 52",19%
same,percent of subjects with significant anti-dsDNA reduction,"subjects with SLE [2]; non-responders, week 128",32%
same,"C4 complement levels, median percent change from baseline","subjects with SLE [2]; patients with low C4 at baseline, each measurement during weeks 4-52, p≦0.01",significant increase
same,"anti-dsDNA titer, median percent change from baseline","subjects with SLE [2]; subjects with anti-dsDNA ≧30 IU/ml at entry, as early as week 4, through week 52, vs placebo",significant reduction
same,IgE reduction,subjects with SLE [2]; week 52,44%
same,IgE reduction,subjects with SLE [2]; week 128,57%
same,median percent IgG reduction,"subjects with SLE [2]; subjects with elevated IgG at baseline, weeks 52-128",14-18%
same,median percent IgG reduction,"subjects with SLE [2]; subjects with normal IgG at baseline, weeks 52-128",7-8%
same,"cell counts of CD19+, naïve, activated and plasmacytoid B cells, median percent change from baseline","subjects with SLE [2]; week 24, all treated combined vs placebo, p<0.0001",significant reduction
same,CD19+ B cells and naïve B cells (CD20+/CD27−),subjects with SLE [2]; week 52,significantly reduced
same,memory cell populations,subjects with SLE [2]; week 52,preserved
same,median percent change in CD20+ B cells (reduction),subjects with SLE [2]; [4],54%
same,median percent change in plasmacytoid B cells (CD20+/CD138+) (reduction),subjects with SLE [2]; [4],62%
same,reduction of anti-dsDNA Ab,"subjects with SLE [2]; week 52, baseline positive, p<0.002, placebo 9%",30%
same,median percent change in activated B cells (CD20+/CD69+) (reduction),"subjects with SLE [2]; week 52, p<0.002",70%
same,median reduction of serum IgE,"subjects with SLE [2]; week 52, placebo 0%",34%
same,median reduction of serum IgA,"subjects with SLE [2]; week 52, placebo 3%",14%
same,median reduction of serum IgM,"subjects with SLE [2]; week 52, placebo 5%",29%
same,subjects with significant anti-dsDNA reduction (≧50% reduction or become negative),"subjects with SLE [2]; week 52, placebo 17%",30%
same,median reduction of serum IgG,"subjects with SLE [2]; week 52, placebo up 3%",10%
same,increase of plasma cells (CD20−/CD138+) over baseline,"subjects with SLE [2]; week 52, placebo/standard of care 30.6%, p=0.02",72.5%
same,additional anti-dsDNA+ subjects converted to negative,subjects with SLE [2]; week 76,3 subjects
same,median reduction of serum IgA,subjects with SLE [2]; week 76,15%
same,median reduction of serum IgE,subjects with SLE [2]; week 76,35%
same,median reduction of serum IgG,subjects with SLE [2]; week 76,12%
same,median reduction of serum IgM,subjects with SLE [2]; week 76,34%
same,reduction of anti-dsDNA Ab,subjects with SLE [2]; week 76,28%
same,median percent change in CD20+ B cells (reduction),subjects with SLE [2]; [5],61%
same,median percent change in activated B cells (CD20+/CD69+) (reduction),subjects with SLE [2]; [5],84%
same,median percent change in plasmacytoid B cells (CD20+/CD138+) (reduction),subjects with SLE [2]; [5],60%
same,median reduction of serum IgA,subjects with SLE [2]; week 104,14%
same,median reduction of serum IgE,subjects with SLE [2]; week 104,37%
same,median reduction of serum IgG,subjects with SLE [2]; week 104,10%
same,median reduction of serum IgM,subjects with SLE [2]; week 104,35%
same,median reduction of serum IgA,subjects with SLE [2]; week 128,14%
same,median reduction of serum IgE,subjects with SLE [2]; week 128,41%
same,median reduction of serum IgG,subjects with SLE [2]; week 128,9%
same,median reduction of serum IgM,subjects with SLE [2]; week 128,40%
same,subjects with significant anti-dsDNA reduction (≧50% reduction or become negative),subjects with SLE [2]; week 128,47%
